“Also recorded” adds a separate entry of the source. Where two headings read alike, the source gives them in different places.
Target: T1, cDNA-expressed recombinant CYP2C19 (Homo sapiens, UniProt P33261)
T1 construct: purchased Gentest Corp. (Woburn, Mass.); host or cells: insect cells (microsomal preparation)
Experiment: Apparent Ki with recombinant CYP2C19 (S-mephenyloin 4'-hydroxylation; Dixon plots, SNLR)
Format: in vitro ADME
Details: for Ki: recombinant CYP2C19
Method: If inhibition was detected, the inhibitory potency was determined using recombinant CYPs. Compound 1 appeared to inhibit the activities of CYP2D6 and CYP2C19. Therefore, three concentrations of S-mephenyloin (30, 80, and 200 μM) and bufuralol (5, 10, and 40 μM), and a range of concentrations (0-200 μM) of Compound 1 were used for the construction of Dixon plots and simultaneously nonlinear regression (SNLR) analyses were performed. The incubation conditions and sample preparations were the same as previously described.
4. CYP2C19-mediated S-mephenyloin 4′-hydroxylation (Goldstein et al., Biochemistry 33:1743-1752, 1994): The LC/MS/MS system, including the separation column, described for the bufuralol hydroxylation was used. The isocratic mobile phase, 100 mM formic acid-acetonitrile/75:25, was run at 0.25 ml/minutes. The operation of the LC/MS/MS was controlled by MacChrom (Version 1.6). The MS/MS was operated at positive ESI with a 5.5 kV ionization potential and 100° C. ion source temperature. MRM was applied for the quantification. The MRM transition ions were m/z 235→150 for 4′-hydroxymephenytoin, and m/z […] for the IS R-propranolol.
Data were acquired and analyzed by ChemStation (Version 6.03, Hewlett Packard, Waldbronn, Germany) for 6-, 7-, and 10-hydroxywarfarin and 6-hydroxychlorzoxazone, and MacQuan (Version 1.6, PE Biosystem, Foster City, Calif.) for 1′-hydroxybufuralol and 4′-hydroxymephenytoin. Quantification was based on peak area ratios of metabolites over the respective IS against the respective concentration of the metabolites. The standard curves were generated by linear regression with (6-, 7-, and 10-hydroxywarfarin, 1′-hydroxybufuralol, and 4′-hydroxymephenytoin) or without (6-hydroxychlorzoxazone) a weighting factor (1/x^2). The metabolic rates were determined using Excel (Microsoft Office 97, Microsoft Corporation, Redmond, Wash.) or SigmaPlot (Version 6.00, SPSS Inc. Chicago, Ill.). […]

T1 sequence (P33261 whole entry): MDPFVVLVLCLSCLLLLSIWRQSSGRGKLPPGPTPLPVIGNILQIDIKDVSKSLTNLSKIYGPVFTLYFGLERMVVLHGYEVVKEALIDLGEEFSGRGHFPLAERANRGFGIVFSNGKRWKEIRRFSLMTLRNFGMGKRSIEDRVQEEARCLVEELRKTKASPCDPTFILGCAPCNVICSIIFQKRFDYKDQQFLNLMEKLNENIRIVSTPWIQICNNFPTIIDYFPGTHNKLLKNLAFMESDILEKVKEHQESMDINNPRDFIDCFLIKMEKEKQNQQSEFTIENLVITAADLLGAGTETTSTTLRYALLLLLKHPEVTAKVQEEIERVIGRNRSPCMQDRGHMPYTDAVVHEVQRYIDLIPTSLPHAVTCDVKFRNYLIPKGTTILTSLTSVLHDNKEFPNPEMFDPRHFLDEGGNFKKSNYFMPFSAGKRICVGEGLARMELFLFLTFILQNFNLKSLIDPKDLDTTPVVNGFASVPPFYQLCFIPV

CNC(=O)Cc1ccc2ccn(C3CCN(CCc4ccccc4F)CC3)c2c1 [Compound 1, N-methyl-[1-[1-(2-fluorophenethyl)piperidine-4-yl]-1H-indol-6-yl] acetamide]
type of inhibition of CYP2C19 (Dixon plots and SNLR analyses): competitive inhibitor; also recorded: primarily, if not fully, competitive | Ki (Dixon plots, S-mephenyloin 30, 80, 200 μM, read-out: apparent Ki, CYP2C19, estimated by Dixon plots): 25 to 45 µM | Ki (SNLR, competitive inhibition model, read-out: apparent Ki, CYP2C19 inhibition, determined by SNLR): 48 µM
